Drawing on patent US11840521B2, “Modulators of Mas-related G-protein receptor X4 and related products and methods” (Escient Pharmaceuticals, Inc., priority 2019, dated 2023), this text covers IC50 for 75 compounds.

Structures are written as SMILES.

MRGPRX4, sequence (Q96LA9 whole entry): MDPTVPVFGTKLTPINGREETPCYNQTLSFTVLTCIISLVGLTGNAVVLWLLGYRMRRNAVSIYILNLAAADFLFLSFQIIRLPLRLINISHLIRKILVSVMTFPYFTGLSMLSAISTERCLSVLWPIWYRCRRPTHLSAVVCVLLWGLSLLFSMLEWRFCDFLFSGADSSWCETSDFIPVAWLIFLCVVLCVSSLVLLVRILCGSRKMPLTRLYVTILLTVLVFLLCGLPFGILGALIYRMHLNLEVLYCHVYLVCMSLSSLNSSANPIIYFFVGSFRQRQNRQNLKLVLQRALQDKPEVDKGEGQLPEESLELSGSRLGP

The target of the first experiment is MRGPRX4 (Homo sapiens, UniProt Q96LA9). The experiment can be described thus: MRGPR X4 antagonist activity, IP-One Gq HTRF assay in stably transfected HEK cells (versus agonist bilirubin, deoxycholic acid, conjugated bilirubin, urobilin, obeticholic acid or BAR502). Type of experiment: cell-based. On the set-up: expressed in transfected cells; host or cells: HEK cells, stably transfected. Conditions: read-out: IC50 (10 μM BAR502) nM; MRGPRX4 antagonists versus 10 μM BAR502 agonist. As for the experimental part:
HEK cells stably transfected to express human MRGPR X4 were maintained in an incubator at 37° C. with 5% CO2 and grown in DMEM media with 10% fetal bovine serum (FBS) and 1% each of sodium pyruvate, Glutamax, penicillin/streptomycin, and Geneticin. HEK cells stably transfected to express mouse MRGPR A1 were maintained in the same incubator and grown in DMEM media with 10% FBS, 1% each of sodium pyruvate, Glutamax, penicillin/streptomycin, Geneticin, and 2.2 mg/mL Hygromycin.
Cells were plated in a 384-well assay plate at 20,000 cells per well in 12 μL of Opti-MEM and kept in an incubator overnight. On the day of the assay, compounds solubilized at 10 mM in DMSO were added as a 10-point curve (10 uM final top concentration with 1:3 serial dilutions) using a Tecan D300E digital dispenser. […] Final concentrations of DMSO were kept consistent across the plate. Plates were incubated in the dark for 1 h at 37° C. and then for 30 minutes at room temperature. IP-1 standards and HTRF detection reagents were added according to the IP-One—Gq Kit purchased from Cisbio (part number 62IPAPEJ) and incubated in the dark for 1 h at room temperature. The plate was read on a Molecular Devices SpectraMax iD5 plate reader. The HTRF ratio was calculated from the raw data and graphed using GraphPad Prism to calculate an IC50 value for each compound.
Regarding `O=C(O)c1cccc(COc2ccc(Cl)cc2C(F)(F)F)n1` [Compound 1-31], the IC50 was 11 nM.

The experiment is the same for the next values; noted with them: versus 10 μM Bilirubin agonist; HEK cells expressing human MRGPR X4; read-out: MRGPR4 Antagonist Activity.
On to `COC(=O)c1cccc(COc2ccc(Cl)cc2C(F)(F)F)c1` [Compound 1-1], for which the IC50 was 1000 to 2500 nM.
Consider `COC(=O)c1cccc(COc2ccc(C(F)(F)F)cc2Cl)c1` [Compound 1-2], for which the IC50 fell in the range of 100 to 500 nM.
With `COC(=O)c1cccc(COc2ccc(C#N)cc2Cl)c1` [Compound 1-3], the IC50 was 1000 to 2500 nM.
As to `COC(=O)c1cccc(COc2ccc(Cl)cc2Cl)c1` [Compound 1-4], the IC50 is greater than 2500 nM.
For `COC(=O)c1cccc(COc2cccc(F)c2)c1` [Compound 1-5], the IC50 lay within 100 to 500 nM.
On to `COC(=O)c1cccc(COc2ccc(OC(F)(F)F)cc2)c1` [Compound 1-6], for which the IC50 was 1000 to 2500 nM.
Consider `COC(=O)c1cccc(COc2ccc(N3CCOCC3)cc2)c1` [Compound 1-7], for which the IC50 was in the range of 1000 to 2500 nM.
Same read-out and setting: for `COC(=O)c1cccc(COc2ccc3scnc3c2)c1` [Compound 1-8] the value was greater than 2500 nM.
Same read-out and setting: then `COC(=O)c1cncc(COc2ccc(Cl)cc2Cl)n1` [Compound 1-9], with 1000 to 2500 nM.
Regarding `COC(=O)c1cccc(COc2ccc(Cl)cc2C(F)(F)F)n1` [Compound 1-10], the IC50 was 500 to 1000 nM.
As for `COC(=O)c1cccc(COc2ccc(C(F)(F)F)cc2Cl)n1` [Compound 1-11], the IC50 was less than 100 nM.
`COC(=O)c1cccc(COc2ccc3ccccc3c2)n1` [Compound 1-12]: the IC50 is less than 100 nM.
For the compound `COC(=O)c1cccc(COc2ccc(Cl)cc2C)n1` [Compound 1-13], the IC50 was in the range of 100 to 500 nM.
Regarding `COC(=O)c1ccc(COc2ccc(Cl)cc2Cl)s1` [Compound 1-14], the IC50 is 1000 to 2500 nM.
Regarding `COC(=O)c1cc(COc2ccc(Cl)cc2Cl)on1` [Compound 1-15], the IC50 was in the range of 1000 to 2500 nM.
Same read-out and setting: for `Cc1cc(C(F)(F)F)ccc1OCc1cccc(C(=O)O)c1` [Compound 1-16, 3-((2-methyl-4-(trifluoromethyl)phenoxy)methyl)benzoic acid] the value was less than 100 nM; for `O=C(O)c1cccc(COc2ccc3ccccc3c2)c1` [Compound 1-17], 100 to 500 nM.
Consider `O=C(O)c1cccc(COc2cc(Cl)ccc2Cl)c1` [Compound 1-19], for which the IC50 fell in the range of 1000 to 2500 nM.
As for `COc1cc(C(=O)O)ccc1OCc1ccc(Cl)cc1` [Compound 1-20], the IC50 was 1000 to 2500 nM.
Same read-out and setting: for `O=C(O)c1cccc(COc2ccc(Cl)cc2)c1` [Compound 1-21] the value was 100 to 500 nM.
On the same count and under the same terms, for `O=C(O)c1cccc(COc2ccccc2Cl)c1` [Compound 1-22] the value was greater than 2500 nM; for `O=C(O)c1cccc(COc2ccc(Cl)cc2F)c1` [Compound 1-23], 500 to 1000 nM; for `O=C(O)c1cccc(COc2ccc(F)cc2Cl)c1` [Compound 1-24], greater than 2500 nM.
Turning to `O=C(O)c1cccc(COc2c(Cl)cccc2Cl)c1` [Compound 1-25], the IC50 is greater than 2500 nM.
As to `COc1ccc(C(=O)O)cc1COc1ccc(Cl)cc1Cl` [Compound 1-27], the IC50 was greater than 2500 nM.
Still for that read-out and setting: for `O=C(O)c1cccc(COc2ccc(Cl)cc2C(F)(F)F)c1` [Compound 1-28] the value was 100 to 500 nM.
On to `O=C(O)c1cccc(COc2ccc3ccccc3c2)n1` [Compound 1-30], for which the IC50 was less than 100 nM.
Still for that read-out and setting: then `O=C(O)c1cccc(COc2ccc(Cl)cc2C(F)(F)F)n1` [Compound 1-31], with less than 100 nM; and `COc1ccc(COc2ccc(Cl)cc2Cl)cc1C(=O)O` [Compound 1-32], with 1000 to 2500 nM; and `O=C(O)c1cccc(COc2cccc3c2CCC3)c1` [Compound 1-33], with 1000 to 2500 nM.
For `N#Cc1ccc(OCc2cccc(C(=O)O)c2)cc1` [Compound 1-34], the IC50 is greater than 2500 nM.
For the compound `N#Cc1ccc(OCc2cccc(C(=O)O)c2)c(Cl)c1` [Compound 1-35], the IC50 is 100 to 500 nM.
Still for that read-out and setting: then `O=C(O)c1cccc(COc2ccc(Cl)cc2)n1` [Compound 1-36], with 500 to 1000 nM; and `COc1ccccc1OCc1cccc(C(=O)O)c1` [Compound 1-37], with 100 to 500 nM; and `COc1ccc(OCc2cccc(C(=O)O)c2)cc1` [Compound 1-38], with 100 to 500 nM.
`COc1cccc(OCc2cccc(C(=O)O)c2)c1` [Compound 1-39]: the IC50 lay within 100 to 500 nM.
`O=C(O)c1cccc(COc2ccccc2F)c1` [Compound 1-40]: the IC50 lay within 1000 to 2500 nM.
Consider `O=C(O)c1cccc(COc2ccc(C(F)(F)F)cc2)c1` [Compound 1-41], for which the IC50 lay within 100 to 500 nM.
Regarding `O=C(O)c1cccc(COc2ccc3c(c2)CCC3)c1` [Compound 1-42], the IC50 fell in the range of 1000 to 2500 nM.
As to `O=C(O)c1ccc(COc2ccc(Cl)cc2Cl)s1` [Compound 1-43], the IC50 was in the range of 500 to 1000 nM.
Consider `O=C(O)c1cc(COc2ccc(Cl)cc2Cl)ccc1Cl` [Compound 1-44], for which the IC50 was in the range of 500 to 1000 nM.
`CCOc1ccc(OCc2cccc(C(=O)O)c2)cc1` [Compound 1-45]: the IC50 lay within 1000 to 2500 nM.
For `O=C(O)c1cccc(COc2ccc(C3CC3)cc2)c1` [Compound 1-46], the IC50 was in the range of 1000 to 2500 nM.
For `O=C(O)c1cccc(COc2ccc(OC(F)(F)F)cc2)c1` [Compound 1-47], the IC50 was in the range of 100 to 500 nM.
Turning to `O=C(O)c1cccc(COc2cccc3c2OC(F)(F)O3)c1` [Compound 1-48], the IC50 was greater than 2500 nM.
Take `O=C(O)c1cccc(COc2cccc3ccccc23)c1` [Compound 1-49]: the IC50 was in the range of 500 to 1000 nM.
In the case of `Cc1cc(Cl)cc(Cl)c1OCc1cccc(C(=O)O)c1` [Compound 1-50], the IC50 lay within 1000 to 2500 nM.
As to `Cc1cc(-c2ccccc2)ccc1OCc1cccc(C(=O)O)c1` [Compound 1-51], the IC50 was in the range of 1000 to 2500 nM.
Still for that read-out and setting: then `O=C(O)c1cccc(COc2ccc(Oc3ccccc3)cc2)c1` [Compound 1-52], with greater than 2500 nM; and `Cc1cc(OCc2cccc(C(=O)O)c2)cc(C)c1Cl` [Compound 1-53], with 500 to 1000 nM; and `CC(=O)c1ccc(OCc2cccc(C(=O)O)c2)cc1` [Compound 1-54], with greater than 2500 nM.
Regarding `Cc1cc(Cl)ccc1OCc1cccc(C(=O)O)n1` [Compound 1-57], the IC50 is 100 to 500 nM.
On to `O=C(O)c1cccc(COc2ccc3ccccc3c2)c1F` [Compound 1-58], for which the IC50 is less than 100 nM.
With `O=C(O)c1cccc(COc2ccc(Cl)c(F)c2)c1` [Compound 1-59], the IC50 is less than 100 nM.
With `Cc1ccc(OCc2cccc(C(=O)O)c2)c(C)c1F` [Compound 1-60], the IC50 fell in the range of 500 to 1000 nM.
Consider `O=C(O)c1cccc(COc2ccc3c(c2)OC(F)(F)O3)c1` [Compound 1-61], for which the IC50 lay within 500 to 1000 nM.
In the case of `O=C(O)c1cccc(COc2ccc(Cl)cc2C(F)(F)F)c1F` [Compound 1-62], the IC50 was less than 100 nM.
Regarding `Cc1cc(Cl)ccc1OCc1cccc(C(=O)O)c1F` [Compound 1-63], the IC50 was less than 100 nM.
For `O=C(O)c1cccc(COc2ccc(C(F)(F)F)cc2F)c1` [Compound 1-64], the IC50 was less than 100 nM.
As for `COc1cc(OCc2cccc(C(=O)O)c2)ccc1C(F)(F)F` [Compound 1-67], the IC50 was in the range of 500 to 1000 nM.
Take `N#Cc1ccc(OCc2cccc(C(=O)O)c2)c(C(F)(F)F)c1` [Compound 1-68]: the IC50 was 100 to 500 nM.
With `O=C(O)c1cccc(COc2cccc(-c3ccc(F)cc3)c2)c1` [Compound 1-69], the IC50 was in the range of 500 to 1000 nM.
Consider `N#Cc1cc(OCc2cccc(C(=O)O)c2)ccc1Cl` [Compound 1-70], for which the IC50 was in the range of 1000 to 2500 nM.
On to `Cc1cc(F)c(F)cc1OCc1cccc(C(=O)O)c1` [Compound 1-71], for which the IC50 was in the range of 500 to 1000 nM.
Turning to `Cc1cc(OCc2cccc(C(=O)O)c2)ccc1Cl` [Compound 1-72], the IC50 is 500 to 1000 nM.
In the case of `O=C(O)c1cccc(COc2ccc(C(F)(F)F)cc2C(F)(F)F)c1` [Compound 1-73], the IC50 was less than 100 nM.
As for `O=C(O)c1cccc(COc2ccc3c(c2)CCC3=O)c1` [Compound 1-74], the IC50 was greater than 2500 nM.
With `O=C(O)c1cccc(COc2cccc(Cl)c2F)c1` [Compound 1-75], the IC50 fell in the range of 1000 to 2500 nM.
`N#Cc1c(Cl)cccc1OCc1cccc(C(=O)O)c1` [Compound 1-76]: the IC50 was 100 to 500 nM.
On the same count and under the same terms, for `Cc1ccc(OCc2cccc(C(=O)O)c2)c(F)c1` [Compound 1-77] the value was 1000 to 2500 nM; for `O=C(O)c1cccc(COc2cccc(C(F)(F)F)c2Cl)c1` [Compound 1-79], 100 to 500 nM; for `O=C(O)c1cccc(COc2ccc(-n3cccc3)cc2)c1` [Compound 1-80], 100 to 500 nM.
`O=C(O)c1cccc(COc2ccc(-c3ccccc3)cc2)c1` [Compound 1-81]: the IC50 was greater than 2500 nM.
For the compound `O=C(O)c1cc(Cl)cc(COc2ccc(C(F)(F)F)cc2Cl)c1` [Compound 1-82], the IC50 was less than 100 nM.
Take `O=C(O)c1cc(COc2ccc(C(F)(F)F)cc2Cl)ccc1Cl` [Compound 1-83]: the IC50 was in the range of 100 to 500 nM.

Still in this experiment, the particulars now being: versus 10 μM Bilirubin agonist; read-out: IC50 (Bilirubin agonist).
Turning to `O=C(O)c1cccc(COc2ccc(Cl)cc2C(F)(F)F)n1` [Compound 1-31], the IC50 is 10 nM.

The same experiment, now with this note: versus 20 μM deoxycholic acid; read-out: IC50 (Deoxycholic Acid agonist).
As for `O=C(O)c1cccc(COc2ccc(Cl)cc2C(F)(F)F)n1` [Compound 1-31], the IC50 turned out to be 5 nM.

Still in this experiment, the particulars now being: versus 20 μM obeticholic acid; read-out: IC50 (Obeticholic Acid Agonist).
On to `O=C(O)c1cccc(COc2ccc(Cl)cc2C(F)(F)F)n1` [Compound 1-31], for which the IC50 was 5 nM.

The experiment is the same for the next values; noted with them: versus 50 μM urobilin; read-out: IC50 (Urobilin Agonist).
With `O=C(O)c1cccc(COc2ccc(Cl)cc2C(F)(F)F)n1` [Compound 1-31], the IC50 was 7 nM.

Still in this experiment, the particulars now being: versus 100 μM conjugated bilirubin; read-out: IC50 (Conjugated Bilirubin Agonist).
Regarding `O=C(O)c1cccc(COc2ccc(Cl)cc2C(F)(F)F)n1` [Compound 1-31], the IC50 stood at 9 nM.
